One series has as its target PI3Kα (PIK3CA/PIK3R1) (Homo sapiens, UniProt P42336). Nature of the series: Adapta kinase assay. Type of series: biochemical. As for the experimental part:
(§1) Procedures for the preparation of KTC1101 are described in supplemental data. To investigate the PI3K inhibitory efficacy of KTC1101, its impact on the kinase activity of PI3K isoforms was assessed using the Adapta kinase assay as previously reported. Initially, a dilution series of 2.5 µL KTC1101 or DMSO (control) was prepared and added to the respective wells of a 384-well plate. Subsequently, optimized 2.5 µL kinase solutions, including PIK3CA/PIK3R1, PIK3CB/PIK3R1, PIK3CG, and PIK3CD/PIK3R1, were introduced to each well. After adding the kinase solutions, 5 µL ATP and PIP2:PS lipid kinase substrate was introduced into each well and incubated for 1 h at room temperature. This step allows for the initiation and progression of the kinase reaction. Following the incubation, a detection solution (5 µL) was added to all the wells. This solution contained 30 mM EDTA to stop the kinase reaction, 6 nM Eu-labeled anti-ADP antibody, and a 3 × concentration of Alexa Fluor® 647 ADP tracer. The EDTA effectively terminates the kinase reaction, while the anti-ADP antibody and ADP tracer are crucial for the detection of ADP produced during the kinase reaction, which correlates with PI3K activity. The plate was then allowed to equilibrate for 30 min at room temperature, ensuring proper binding of the tracer and antibody to the generated ADP. Finally, the fluorescence of each well was measured using a Multi-Mode Microplate Reader (Spark, Tecan). To ascertain the selectivity of KTC1101 for PI3K isoforms and to rule out off-target effects, a kinase panel comprising 50 kinases was tested against KTC1101. This kinase profiling was conducted by Wuhan Heyan Biomedical Technology Co., Ltd.

A further series addresses PI3Kβ (PIK3CB/PIK3R1) (Homo sapiens, UniProt P42338). Nature of the series: Adapta kinase assay. The class given is biochemical. As for the experimental part:
as §1

For the next series, the target named is PI3Kγ (PIK3CG) (Homo sapiens, UniProt P48736). Nature of the series: Adapta kinase assay. Type of series: biochemical. As for the experimental part: as §1
Sequence of PI3Kγ (PIK3CG) (P48736 whole entry): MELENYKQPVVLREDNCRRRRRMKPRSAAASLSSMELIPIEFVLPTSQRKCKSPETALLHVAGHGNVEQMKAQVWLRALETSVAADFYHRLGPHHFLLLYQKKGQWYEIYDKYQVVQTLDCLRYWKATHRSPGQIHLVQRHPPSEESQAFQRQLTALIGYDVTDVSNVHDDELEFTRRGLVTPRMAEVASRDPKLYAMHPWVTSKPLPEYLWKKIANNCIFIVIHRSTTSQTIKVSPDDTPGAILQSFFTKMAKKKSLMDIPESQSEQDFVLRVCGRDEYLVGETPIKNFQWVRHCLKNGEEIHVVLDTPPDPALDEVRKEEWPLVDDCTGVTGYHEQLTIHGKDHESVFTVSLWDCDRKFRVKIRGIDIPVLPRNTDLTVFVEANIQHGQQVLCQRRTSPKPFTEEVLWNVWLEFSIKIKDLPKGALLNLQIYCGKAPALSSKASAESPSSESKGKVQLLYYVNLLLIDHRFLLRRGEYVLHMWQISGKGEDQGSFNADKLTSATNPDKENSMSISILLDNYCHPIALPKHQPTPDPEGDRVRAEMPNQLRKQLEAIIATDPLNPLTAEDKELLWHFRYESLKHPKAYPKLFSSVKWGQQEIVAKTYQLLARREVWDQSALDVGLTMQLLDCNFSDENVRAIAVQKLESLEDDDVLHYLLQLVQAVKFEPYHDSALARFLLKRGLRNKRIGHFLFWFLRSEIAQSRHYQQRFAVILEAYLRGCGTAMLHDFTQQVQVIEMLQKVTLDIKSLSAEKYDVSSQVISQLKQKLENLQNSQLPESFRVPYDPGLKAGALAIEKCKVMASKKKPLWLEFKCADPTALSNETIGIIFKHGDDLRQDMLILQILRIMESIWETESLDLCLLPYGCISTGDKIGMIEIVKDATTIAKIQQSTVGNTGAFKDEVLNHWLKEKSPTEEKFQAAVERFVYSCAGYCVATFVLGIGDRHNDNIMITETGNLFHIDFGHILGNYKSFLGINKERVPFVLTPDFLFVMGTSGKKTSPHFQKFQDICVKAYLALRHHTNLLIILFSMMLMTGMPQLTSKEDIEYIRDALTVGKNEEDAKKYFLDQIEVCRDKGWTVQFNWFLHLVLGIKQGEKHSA
Another series deals with PI3Kδ (PIK3CD/PIK3R1) (Homo sapiens, UniProt O00329). Nature of the series: Adapta kinase assay. The class given is biochemical. As for the experimental part:
as §1

In series [1] the test system is kinase panel comprising 50 kinases. Nature of the series: Kinase profiling, panel of 50 kinases. Particulars: 1 μM. The class given is biochemical. As for the experimental part:
as §1, with “The plate was then allowed to equilibrate for 30 min at room temperature, ensuring proper binding of the tracer and antibody to the generated ADP.” left out, “To ascertain the selectivity of KTC1101 for PI3K isoforms and to rule out off-target effects, a kinase panel comprising 50 kinases was tested against KTC1101. This kinase profiling was conducted by Wuhan Heyan Biomedical Technology Co., Ltd.” left out

The nature of the next series: Acute toxicity study. Type of series: in vivo. The settings on record: both sexes, mouse, in vivo, oral; BALB/c mice, acute toxicity. As for the experimental part: (§2) All mice care and experimental protocols were approved by the Ethical Committee of Tianjin Medical University (permit number: TMUaMEC 2023036). Preliminary testing was conducted on 6 groups of BALB/c mice (half male, half female, 18–22 g), fasted but not water-deprived for 12 h, and administered different doses of KTC1101 (200 to 6400 mg/kg). […] The LD50 was calculated based on the doses causing 0% and 100% mortality in animals. Subsequent testing was done using doses determined from the preliminary study. Each dose was administered to a single animal, with a 72-h interval between dosages. The administration continued until one of the following criteria was met: (a) three consecutive animals survived; (b) a transition from survival to death occurred in 5 out of 6 consecutive animals; (c) at least four animals were tested after the first transition, with an estimated LD50 range exceeding the critical value (2.5 times). The LD50 and its confidence interval were calculated, and the maximum likelihood method was used to determine the LD50 value using the AOT425StatPgm software.

A further series relates to BALB/c mice. Nature of the series: Acute toxicity study. Type of series: in vivo. The settings on record: symbols O/X not defined. As for the experimental part:
as §2

For the next series, the system named is TMD8 tumors. Nature of the series: TMD8 xenograft in NSG mice. Type of series: in vivo, mouse. As for the experimental part: (§3) BALB/c nude, NSG, and C57BL/6J mice were obtained from Tianjin Medical University. The housing temperature was controlled, ranging from 20.5–24 °C, and humidity was monitored but not controlled ranging from 30–70%. The 12-h daily light cycle was from 06:00 to 18:00. To generate a murine subcutaneous tumor model, PC3 and HSC2 cells were subcutaneously injected into the right lateral flank of 4- to 5-week-old male BALB/c nude mice. TMD8, CAL33, and S24 cells were subcutaneously injected into the right lateral flank of 4- to 5-week-old male NSG mice. When tumors reached a volume of 300–500 mm^3, they were excised, diced into 2 mm × 2 mm × 2 mm pieces, and implanted into the right flanks of BALB/c nude or NSG mice. Tumors were allowed to grow to a volume of 100 mm^3, and then the animals were randomly divided into several groups. Each group of five mice was treated with either vehicle or KTC1101 (25, 50, or 100 mg/kg, PO). Tumor size was measured every 3 d or 4 d until the endpoint. The tumor volume was calculated using the following formula: length × width × height/2. At the end of the experimental period, mice were euthanized by overdosing on pentobarbital sodium, and the tumors were removed. Tumor tissue was formalin-fixed and paraffin-embedded for histological analysis.

A further series deals with HSC2 tumors. Nature of the series: HSC2 xenograft in BALB/c nude mice. The settings on record: 100 mg/kg PO. Type of series: in vivo, mouse. As for the experimental part:
as §3

In another series the test system is S24 tumors. Nature of the series: S24 tumors in NSG mice. Type of series: in vivo, mouse. The settings on record: 100 mg/kg daily oral gavage. As for the experimental part: as §3
The test system of series [2] is B16 tumor-bearing C57BL/6 mice. Nature of the series: Toxicity and safety profiling in vivo (serum biochemistry, routine blood, H&E). More on the design: species or system mouse. Particulars: hematological parameters in the blood. As for the experimental part: The B16 tumor-bearing C57BL/6 mice were divided into 4 groups randomly (n = 3 per group) and treated with vehicle, KTC1101 (100 mg/kg 3on/4off, PO), anti-PD-1 antibody (250 μg per mouse, IP), or a combination of KTC1101 and anti-PD-1 antibody. After 14 days of treatment, all mice were sacrificed. Blood samples were collected for analysis; one portion was centrifuged (3000 rpm, 4 °C) to obtain serum for biochemical parameter analysis, including alanine aminotransferase (ALT), aspartate aminotransferase (AST), creatinine (CREA), and blood urea nitrogen (BUN). The other portion was used for routine blood examination. Major organs including the heart, liver, spleen, lung, and kidney were collected, sectioned, and stained with H&E for histopathological evaluation.

The record followed here is article PMC10938783, “A novel pan-PI3K inhibitor KTC1101 synergizes with anti-PD-1 therapy by targeting tumor suppression and immune activation” (Molecular Cancer, 2024).

Sequence of PI3Kα (PIK3CA/PIK3R1) (P42336 whole entry, canonical isoform): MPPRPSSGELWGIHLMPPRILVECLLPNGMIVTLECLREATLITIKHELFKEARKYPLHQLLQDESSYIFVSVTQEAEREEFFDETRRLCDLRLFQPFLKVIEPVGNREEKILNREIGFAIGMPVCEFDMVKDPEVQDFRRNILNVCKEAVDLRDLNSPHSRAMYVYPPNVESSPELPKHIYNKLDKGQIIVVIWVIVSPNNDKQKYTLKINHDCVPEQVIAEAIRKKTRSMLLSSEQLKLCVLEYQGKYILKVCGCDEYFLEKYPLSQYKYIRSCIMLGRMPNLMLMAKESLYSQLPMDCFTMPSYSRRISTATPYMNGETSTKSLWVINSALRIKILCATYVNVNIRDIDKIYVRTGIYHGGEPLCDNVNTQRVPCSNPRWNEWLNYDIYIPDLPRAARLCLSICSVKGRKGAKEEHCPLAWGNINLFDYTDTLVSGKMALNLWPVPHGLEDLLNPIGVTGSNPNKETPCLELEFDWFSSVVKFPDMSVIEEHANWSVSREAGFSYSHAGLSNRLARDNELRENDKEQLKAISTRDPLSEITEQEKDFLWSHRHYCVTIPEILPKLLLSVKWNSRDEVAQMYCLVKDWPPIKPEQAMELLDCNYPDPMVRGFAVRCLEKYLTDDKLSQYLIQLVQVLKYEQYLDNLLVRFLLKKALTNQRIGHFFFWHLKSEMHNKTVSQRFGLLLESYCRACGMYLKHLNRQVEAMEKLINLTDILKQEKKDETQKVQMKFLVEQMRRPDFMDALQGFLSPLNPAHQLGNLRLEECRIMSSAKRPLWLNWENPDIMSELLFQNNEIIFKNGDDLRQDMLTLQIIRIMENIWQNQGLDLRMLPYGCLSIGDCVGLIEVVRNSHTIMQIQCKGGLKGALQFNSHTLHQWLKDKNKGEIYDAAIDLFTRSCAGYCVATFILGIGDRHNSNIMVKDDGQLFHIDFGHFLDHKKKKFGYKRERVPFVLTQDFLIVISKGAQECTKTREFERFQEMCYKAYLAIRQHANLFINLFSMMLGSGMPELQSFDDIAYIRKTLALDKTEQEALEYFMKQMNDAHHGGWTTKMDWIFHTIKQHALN
Sequence of PI3Kα (PIK3CA/PIK3R1) (P27986 whole entry partner, canonical isoform): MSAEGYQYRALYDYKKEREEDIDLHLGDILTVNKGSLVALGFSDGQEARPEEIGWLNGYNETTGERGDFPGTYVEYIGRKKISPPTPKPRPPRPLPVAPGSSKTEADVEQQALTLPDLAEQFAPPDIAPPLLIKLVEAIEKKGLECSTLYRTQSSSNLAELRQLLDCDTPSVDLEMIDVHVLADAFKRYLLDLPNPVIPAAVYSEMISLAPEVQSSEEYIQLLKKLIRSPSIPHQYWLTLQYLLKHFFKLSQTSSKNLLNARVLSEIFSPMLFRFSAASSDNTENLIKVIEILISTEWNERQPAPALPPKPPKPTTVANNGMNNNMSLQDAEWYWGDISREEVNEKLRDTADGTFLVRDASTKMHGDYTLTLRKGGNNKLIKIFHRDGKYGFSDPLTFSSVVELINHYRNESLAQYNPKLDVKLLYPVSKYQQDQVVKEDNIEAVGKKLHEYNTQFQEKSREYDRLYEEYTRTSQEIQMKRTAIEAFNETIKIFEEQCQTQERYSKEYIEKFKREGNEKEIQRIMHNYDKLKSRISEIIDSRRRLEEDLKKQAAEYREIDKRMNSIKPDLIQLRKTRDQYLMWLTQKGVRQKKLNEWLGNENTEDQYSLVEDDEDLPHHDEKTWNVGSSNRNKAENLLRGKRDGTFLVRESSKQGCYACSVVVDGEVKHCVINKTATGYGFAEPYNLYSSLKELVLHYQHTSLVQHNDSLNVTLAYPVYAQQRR
Sequence of PI3Kβ (PIK3CB/PIK3R1) (P42338 whole entry): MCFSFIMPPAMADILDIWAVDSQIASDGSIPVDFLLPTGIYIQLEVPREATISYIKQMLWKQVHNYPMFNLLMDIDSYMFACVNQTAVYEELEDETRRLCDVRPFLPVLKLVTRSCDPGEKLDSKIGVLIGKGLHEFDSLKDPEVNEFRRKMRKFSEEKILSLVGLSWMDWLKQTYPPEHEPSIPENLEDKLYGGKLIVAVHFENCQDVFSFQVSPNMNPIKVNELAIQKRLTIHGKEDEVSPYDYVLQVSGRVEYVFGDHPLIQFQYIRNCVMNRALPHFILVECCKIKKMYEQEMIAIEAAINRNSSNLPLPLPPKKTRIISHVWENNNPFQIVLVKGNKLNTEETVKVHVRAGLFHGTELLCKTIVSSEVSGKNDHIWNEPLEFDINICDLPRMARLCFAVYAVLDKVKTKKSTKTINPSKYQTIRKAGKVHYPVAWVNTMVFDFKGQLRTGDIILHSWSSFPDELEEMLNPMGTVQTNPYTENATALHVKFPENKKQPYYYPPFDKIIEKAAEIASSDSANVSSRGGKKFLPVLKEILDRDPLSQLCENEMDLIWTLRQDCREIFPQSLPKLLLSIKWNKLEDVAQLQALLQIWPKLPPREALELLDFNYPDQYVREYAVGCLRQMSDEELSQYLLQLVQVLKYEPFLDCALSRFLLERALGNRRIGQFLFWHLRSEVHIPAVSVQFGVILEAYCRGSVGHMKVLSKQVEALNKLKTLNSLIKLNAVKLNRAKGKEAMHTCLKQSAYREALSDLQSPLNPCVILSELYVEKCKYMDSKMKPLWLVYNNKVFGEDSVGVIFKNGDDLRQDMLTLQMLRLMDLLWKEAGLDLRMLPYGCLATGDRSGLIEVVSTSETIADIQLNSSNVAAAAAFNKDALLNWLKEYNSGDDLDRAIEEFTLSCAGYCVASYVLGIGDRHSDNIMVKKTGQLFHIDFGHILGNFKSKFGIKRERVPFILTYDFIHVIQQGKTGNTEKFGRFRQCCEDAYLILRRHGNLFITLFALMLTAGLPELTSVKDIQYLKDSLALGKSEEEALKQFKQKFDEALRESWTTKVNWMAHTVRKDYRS
Sequence of PI3Kβ (PIK3CB/PIK3R1) (P27986 whole entry partner): as the sequence (P27986 whole entry partner, canonical isoform) above
Sequence of PI3Kδ (PIK3CD/PIK3R1) (O00329 whole entry): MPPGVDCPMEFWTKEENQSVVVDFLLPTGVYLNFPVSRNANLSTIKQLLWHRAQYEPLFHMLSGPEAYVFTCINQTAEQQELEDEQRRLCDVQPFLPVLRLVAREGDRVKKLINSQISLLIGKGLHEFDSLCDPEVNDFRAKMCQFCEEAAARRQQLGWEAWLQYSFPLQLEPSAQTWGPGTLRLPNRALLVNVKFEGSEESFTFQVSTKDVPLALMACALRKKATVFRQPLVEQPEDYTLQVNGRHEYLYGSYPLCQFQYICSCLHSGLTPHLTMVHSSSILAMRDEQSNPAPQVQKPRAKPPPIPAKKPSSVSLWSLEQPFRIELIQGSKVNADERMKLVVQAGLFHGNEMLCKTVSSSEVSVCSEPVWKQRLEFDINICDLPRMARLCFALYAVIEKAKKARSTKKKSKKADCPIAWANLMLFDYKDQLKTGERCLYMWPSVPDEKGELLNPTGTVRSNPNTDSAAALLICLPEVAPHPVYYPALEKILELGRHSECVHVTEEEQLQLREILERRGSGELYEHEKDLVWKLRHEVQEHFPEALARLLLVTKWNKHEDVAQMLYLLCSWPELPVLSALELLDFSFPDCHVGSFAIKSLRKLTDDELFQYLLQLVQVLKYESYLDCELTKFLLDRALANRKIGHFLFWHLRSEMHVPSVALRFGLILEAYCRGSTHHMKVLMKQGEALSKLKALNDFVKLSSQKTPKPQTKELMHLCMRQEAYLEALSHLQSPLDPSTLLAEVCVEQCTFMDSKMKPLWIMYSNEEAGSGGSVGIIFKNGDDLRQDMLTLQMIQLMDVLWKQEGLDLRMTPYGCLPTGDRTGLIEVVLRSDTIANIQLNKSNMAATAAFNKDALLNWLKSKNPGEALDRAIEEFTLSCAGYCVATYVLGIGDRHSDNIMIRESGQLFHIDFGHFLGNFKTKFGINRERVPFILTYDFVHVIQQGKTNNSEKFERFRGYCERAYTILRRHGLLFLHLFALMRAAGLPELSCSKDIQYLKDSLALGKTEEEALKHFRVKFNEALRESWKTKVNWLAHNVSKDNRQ
Sequence of PI3Kδ (PIK3CD/PIK3R1) (P27986 whole entry partner): as the sequence (P27986 whole entry partner, canonical isoform) above

For the molecule `COc1cc(N)cc2c1nc(C(F)F)n2-c1nc(N2CCCOCC2)nc(N2CCOCC2)n1` [KTC1101, 2-(difluoromethyl)-4-methoxy-1-(4-morpholino-6-(1,4-oxazepan-4-yl)-1,3,5-triazin-2-yl)-1H-benzo[d]imidazol-6-amine], the IC50 (as a rule, the point on the concentration scale where inhibition reaches its midpoint) against PI3Kα (PIK3CA/PIK3R1) stood at 3.72 nM. The molecule further returned an IC50 at PI3Kβ (PIK3CB/PIK3R1) of 36.3 nM. The molecule also had a concentration for half-maximal inhibition (IC50) on PI3Kγ (PIK3CG) of 17.1 nM. In addition, 1.22 nM corresponded to half-maximal inhibition against PI3Kδ (PIK3CD/PIK3R1) (IC50). Also, in series [1], the “inhibition rate, all four PI3K targets” value is listed as “greater than 90%” and the “inhibition rate, other kinases of the panel” value is listed as “less than 50%”. In addition, the LD50 (commonly the dose expected to kill half of the subjects tested) at 7 days in the series “Acute toxicity study” was found to be 2140 mg/kg. Also, the Score entry in the series on BALB/c mice (real dose 1750 mg/kg) is “OOO”. In addition, the Score entry with BALB/c mice (real dose 2275 mg/kg) was “XXX”. Moreover, the tumor growth result with TMD8 tumors (100 mg/kg PO) is “slowed tumor progression”. Also, the “efficacy versus ZSTK474 and Copanlisib” value in the series with TMD8 tumors (100 mg/kg and 125 mg/kg PO) was “marginally outperformed those of 200 mg/kg ZSTK474 orally and was comparable to 14 mg/kg Copanlisib intravenously”. Moreover, the tumor growth entry in the series with HSC2 tumors is listed as “Tumor growth arrest”. The “time until tumors started to progress” value in the series with S24 tumors is listed as 10 days. In [2], the GRAN is reported as 0.93±0.67 109L-1, the MCV was 52.90 ± 8.84 fL, the PLT was 745.00±220.75 109L-1 and the RBC is on record as 6.03±2.50 1012L-1. Further, in [2], the RDW is 17.97±3.41% and the WBC was 3.67±3.06 109L-1.
